Measured values from patent US8759300B2, “Polypeptides and methods of use” (The Research Foundation for the State University of New York, priority 2007, dated 2014).
Entries after “also recorded” stand apart in the source; their conditions may differ. No end group written: not given here.

Key:
PDGF-BB [1] = biological target: T1, PDGF-BB (Homo sapiens, UniProt P01127); test: Equilibrium binding of 125I-PDGF-BB to FN, FN domains and peptides; details: for PDGF-BB binding, in words: equilibrium binding and/or plasmon resonance; for Kd: equilibrium binding
Experimental: (§1) 20 μl of 50% v/v peptide-agarose beads are incubated with 125I-PDGF in 0.1 ml of binding buffer (DMEM+2% BSA) at room temperature for 2 hours with rotation. Beads are washed 6 times with DMEM. Bound PDGF-BB are released by the addition of 100 μl of 1M NaOH. The radioactivity bound to FN-beads are quantified in a γ-counter. Nonspecific binding are established from ^125I-PDGF binding to nonconjugated beads, then specific binding derived by subtraction of nonspecific binding from total binding. Binding constants (KD) and Bmax are determined from nonlinear regression of specific binding curves using Prism 4 from GraphPad Software, San Diego, Calif. “Scatchard plots” are derived from the KD and Bmax obtained with non linear regression analysis.

[2] = test system: GFs (TGF-β1, PDGF-BB, VEGF, FGF-2); test: Binding of growth factors to FN domains, GFs reported together
Experimental: as §1
(§2) In the Biacore2000 system, binding constants from kinetic data are determined by passing varying concentrations of FN peptides (analytes) over chip surfaces which are coupled with PDGF-BB (ligand), respectively. All kinetic experiments are carried out at 20° C. at a flow rate of 20 μl/min. For mass transport experiments, each analyte is injected at a fixed concentration and run at flow rates ranging from 5 to 75 μl/min. All analytes are injected over PDGF-BB ligand surfaces as well as over a control surface for 120 s, followed by 300 s of dissociation in running buffer. Regeneration of the sensor chip for subsequent injections is accomplished by pulse of 0.1% SDS. Mass transport experiments have detected little difference in response at different flow rates thus validating data from kinetic experiments. Sensorgrams are prepared and globally fitted using nonlinear least-squares analysis and numerical integration of the differential rate equations with the Biacore Bioevaluation software. Each sensogram generated using a control surface is substracted from the corresponding experimental sensorgrams, and the resulting curves are transformed to concentration units using the molecular mass of the injected species, the equivalence of 1000 resonance units (RU) per 1 ng/mm^2, and a matrix thickness of 100 nm. Each data set, which consists of a series of sensorgrams from injections of different concentration of analyte over the same surface, are analyzed using kinetic models from Biaevaluation software.

PDGF-BB [3] = biological target: T1, PDGF-BB; test: Surface plasmon resonance (Biacore), PDGF-BB; type: binding; details: plasmon resonance, kinetic binding
Experimental: as §2, with “Each sensogram generated using a control surface is substracted from the corresponding experimental sensorgrams, and the resulting curves are transformed to concentration units using the molecular mass of the injected species, the equivalence of 1000 resonance units (RU) per 1 ng/mm^2, and a matrix thickness of 100 nm.” left out

FN-null cells [4] = test: FN-null cell survival on surfaces coated with FN domains; type: cell-based, mouse; details: for FN-null cell survival / proliferation: FNIII8-11 ± named FN domain, or named FN construct, PDGF-BB added 2 hrs after plating; for FN-null cell survival / proliferation, summary statement: cells plated on named FN construct, or on FNIII8-11 ± named domain; for FN-null cell survival with PDGF at 3 days: surface precoated with 0.15 μM GST-tagged FNIII8-11 ± named FN domain, or named FN construct, PDGF-BB added 1 day after plating
Experimental: To further investigate the response of cells to PDGF-BB bound to FN domains, we investigated the survival response of mouse fibroblasts null for FN (FN−/−), or “FN-null”. First we determined the response of FN-null cells to PDGF-BB in the absence of serum or other sources of exogenous FN. […] Next, FN-null cells were plated on tissue culture plastic surfaces precoated with 0.15 μM GST-tagged FNIII8-11±other FN domains known to have PDGF-BB binding activity and then PDGF-BB added 1 day later. […] Importantly, differential response of FN-null cells, plated on different FN domains, to PDGF-BB was not secondary to differences in attachment as judged by cell counts two hours after plating. The FNIII8-11 central cell binding domain was present in all circumstances.

TGF-β1 = TGF-β1 (Homo sapiens, UniProt P01137); test: Equilibrium binding of TGF-β1 to FN, FN domains and peptides; details: for TGF-β1 binding, in words: equilibrium and/or kinetic binding
Experimental: [The source words this procedure for another target and reports this target under the same test.] as §1

bFGF (FGF-2) = bFGF (FGF-2) (Homo sapiens, UniProt P09038); test: Equilibrium binding of bFGF (FGF-2) to FN and FN domains
Experimental: [The source words this procedure for another target and reports this target under the same test.] as §1

VEGF = biological target: T2, VEGF (Homo sapiens, UniProt P15692); test: Surface plasmon resonance, VEGF; type: binding
T2 sequence (P15692 27-191 isoform P15692-4): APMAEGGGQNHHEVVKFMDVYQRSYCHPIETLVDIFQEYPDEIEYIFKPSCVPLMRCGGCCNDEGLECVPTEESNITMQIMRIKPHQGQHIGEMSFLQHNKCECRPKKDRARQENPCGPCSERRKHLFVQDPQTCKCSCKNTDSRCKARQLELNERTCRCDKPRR

FN-null cells [5] = test: FN-null cell assay, peptides added directly to medium on FNIII8-11; type: cell-based, mouse
Experimental: FIG. 6. FN-null fibroblast response to soluble, unconjugated P5 (SEQ ID NO:37). FN-null cells were cultured at 4,000 cells/well in 96 well plates precoated with 0.125 mM of FNIII8-11 in DMEM for 4 hrs, and then further incubated in DMEM+2% BSA with or without the indicated concentrations of Peptide 5 at 37° C. for 3 days. Cells were counted in three 10× fields in each of 4 wells (mean±SD, n−12).
Scrambled variants of peptides 1 and 5 had no activity in these assays.
Variants of peptide 5 derived from fibronectin were generated by removing one amino acid at a time from the N-terminus or C-terminus of Peptide 5 (Table 2). These peptides (P12-P24) were added directly to medium with or without PDGF-BB.

[6] = biological target: T3, PDGF-BB binding to FNIII1, FNIII12-14 and IIICS (Homo sapiens, UniProt P01127); test: Inhibition by peptides of PDGF-BB binding to FN domains; details: all three FN domains
T3 construct: made in house; host or cells: E. coli BL21DE3LysS (FN domains only)
Excerpt: To further localize PDGF-BB binding within FNIIII, we acquired a peptide from the central 76 amino acids (aa) of FNIII1 (FN630-704) (FIG. 4), which has anti-angiogenic properties and promotes FN polymerization. […] Next, we looked for sequence homologies within the two halves of the peptide and discovered the sequence pattern noted above ([QN]-X(1,2)-[ST]-X(0,1)-[IG]-[QS]-[KRQ]-[YTM]-[IG]-X(4,5)-X(0,1)-[KR]-X(1,2)-X(1,2)-[RT]-X(1,2)-[KQTS]-X(2)-T) (SEQ ID NO:30) (see peptides 1-4). […] These findings may explain similar PDGF-BB binding among FN heparin-binding domains, FNIII12-V15, FNIII12-15, FNIII12-14, FNIII12-13, and IIICS. […] Next, we determined if PDGF-BB-binding peptides from FNIII1 could inhibit PDGF-BB binding to FNIII1, FNIII12-14 and IIICS. For initial experiments we selected peptide 1 and peptide 2. For control, we used scrambled peptide 1.

[7] = biological target: T4, TGF-β1 binding to recombinant FN domain (Homo sapiens, UniProt P01137); test: Inhibition by peptide of TGF-β1 binding to recombinant FN domains
T4 construct: made in house; host or cells: E. coli BL21DE3LysS (FN domains only)

[8] = biological target: T5, bFGF binding to recombinant FN domain (Homo sapiens, UniProt P09038); test: Inhibition by peptide of bFGF binding to recombinant FN domains
T5 construct: made in house; host or cells: E. coli BL21DE3LysS (FN domains only)

FGF-1 = FGF-1 (Homo sapiens, UniProt P05230); test: Binding of FGF-1 to FN, FN domains and peptides
EGF = EGF (Homo sapiens, UniProt P01133); test: Binding of EGF to FN, FN domains and peptides
TGF-α = TGF-α (Homo sapiens, UniProt P01135); test: Binding of TGF-α to FN, FN domains and peptides
[9] = peptide added directly to media with or without PDGF-BB

T1 sequence (P01127 82-190 limits assumed): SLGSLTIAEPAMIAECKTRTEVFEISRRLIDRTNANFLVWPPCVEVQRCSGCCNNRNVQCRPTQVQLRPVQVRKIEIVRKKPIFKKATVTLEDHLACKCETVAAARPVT
TGF-β1, sequence (P01137 279-390 limits assumed): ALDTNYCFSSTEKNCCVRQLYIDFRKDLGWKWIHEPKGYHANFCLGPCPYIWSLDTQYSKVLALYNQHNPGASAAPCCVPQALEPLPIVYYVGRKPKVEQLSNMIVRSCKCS
T3 sequence (P01127 82-190 limits assumed): as the sequence (P01127 82-190 limits assumed) above
bFGF (FGF-2), sequence (P09038 143-288): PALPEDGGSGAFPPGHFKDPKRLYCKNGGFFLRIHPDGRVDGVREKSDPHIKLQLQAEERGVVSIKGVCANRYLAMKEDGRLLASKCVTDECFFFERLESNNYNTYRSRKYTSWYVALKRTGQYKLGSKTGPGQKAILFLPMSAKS
FGF-1, sequence (P05230 whole entry, species assumed, the tested form may be a part): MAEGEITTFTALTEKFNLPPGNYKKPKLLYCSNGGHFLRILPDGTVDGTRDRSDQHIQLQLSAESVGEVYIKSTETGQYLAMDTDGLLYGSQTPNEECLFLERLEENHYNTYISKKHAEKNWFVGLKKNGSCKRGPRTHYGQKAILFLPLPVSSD
T4 sequence (P01137 279-390 limits assumed): as the sequence (P01137 279-390 limits assumed) above
T5 sequence (P09038 134-288 limits assumed): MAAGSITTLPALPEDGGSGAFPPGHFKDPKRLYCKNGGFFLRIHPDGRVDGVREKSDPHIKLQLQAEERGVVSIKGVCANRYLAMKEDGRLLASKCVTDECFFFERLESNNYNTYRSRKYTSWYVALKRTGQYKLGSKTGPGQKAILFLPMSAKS
EGF, sequence (P01133 971-1023 limits assumed, species assumed): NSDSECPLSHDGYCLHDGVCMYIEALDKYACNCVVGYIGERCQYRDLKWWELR
TGF-α, sequence (P01135 40-89, species assumed): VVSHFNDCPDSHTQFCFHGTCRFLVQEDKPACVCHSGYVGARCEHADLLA

For “FN70: 70 kDa amino terminus of FN, which includes fibrin and gelatin binding domains”, the “PDGF-BB binding, in words” value (PDGF-BB [1]) was “did not” and the “Binding of the GFs tested, in words” value [2] was “None of the GFs detectably bound; also recorded: In no case did any GF bind”.

“FN630-667: half of the 76 aa FNIII1 peptide FN630-704” was tested, and the “PDGF-BB binding, in words” value (PDGF-BB [1]) was “demonstrated PDGF-BB binding”.

With “FN668-704: half of the 76 aa FNIII1 peptide FN630-704” the “PDGF-BB binding, in words” value (PDGF-BB [1]) was “demonstrated PDGF-BB binding”.

With “FNIII1-2: recombinant FN domain, first and second type III repeat” the Kd (PDGF-BB [3]) was 9.1 nM, the “FN-null cell survival / proliferation” value (FN-null cells [4]) was “enhance survival” and the Kd (PDGF-BB [1]) was 37 nM. For the same substance, the “Binding of the GFs tested, in words” value [2] was “all four GFs bound”.

For “FNIII1-11: recombinant FN domain; FNIII1 PDGF-binding domain contiguous with FNIII8-11 cell-binding domain”, the “TGF-β1 binding, in words” value (TGF-β1) was “bound”, the “FN-null cell survival in the absence of PDGF-BB” value (FN-null cells [4]) was “survived” and the “FN-null cell survival / proliferation” value (FN-null cells [4]) was “robust proliferation”. The “FN-null cell survival / proliferation, summary statement” value (FN-null cells [4]) was “survived in the absence of PDGF-BB and proliferated in its presence”, the “FN-null cell survival with PDGF at 3 days” value (FN-null cells [4]) was “best survival response” and the “PDGF-BB binding, in words” value (PDGF-BB [1]) was “bound”. For the same substance, the “bFGF (FGF-2) binding, in words” value (bFGF (FGF-2); equilibrium and/or kinetic binding) was “did not” and the “VEGF binding, in words” value (VEGF) was “did not”.

“FNIII1: recombinant FN domain, first type III repeat” was tested, and the Kd (TGF-β1; method not restated (equilibrium and kinetic binding performed)) was 6.2 nM, the Kd (PDGF-BB [3]) was 370 nM and the “FN-null cell survival with PDGF at 3 days” value (FN-null cells [4]) was “increased survival”. The Kd (PDGF-BB [1]) was 32 nM and the “Binding of the GFs tested, in words” value [2] was “all four GFs bound”.

For “FNIII2: recombinant FN domain, second type III repeat”, the “Binding of the GFs tested, in words” value [2] was “all four GFs bound”.

“FNIII8-11: classic cell-binding domain of FN containing RGD” was tested, and the “FN-null cell survival / proliferation, summary statement” value (FN-null cells [4]) was “failed to survive even in the presence of PDGF-BB; also recorded: did not support cell survival”, the “FN-null cell survival with PDGF at 3 days” value (FN-null cells [4]) was “failed to survive” and the “PDGF-BB binding, in words” value (PDGF-BB [1]) was “did not”. For the same substance, the “Binding of the GFs tested, in words” value [2] was “None of the GFs detectably bound; also recorded: In no case did any GF bind”.

“FNIII8-V15: FN functional domain containing FNIII8-11 plus a GF-binding domain” was tested, and the “FN-null cell survival / proliferation” value (FN-null cells [4]) was “robust proliferation” and the “FN-null cell survival / proliferation, summary statement” value (FN-null cells [4]) was “survived in the absence of PDGF-BB and proliferated in its presence”.

With PSHISKYILRWRPK [P12] the “FN null cell survival and proliferation” value (FN-null cells [5]; [9]) was “smallest peptide capable of supporting FN-null cell survival or proliferation”.

For PSLAKKQRFRHRNR, the “FN null cell survival and proliferation” value (FN-null cells [5]; in the presence of PDGF-BB) was “supported FN null cell survival and proliferation”.

With QLISIQQYGHQEVTRFDFTTTSTST [peptide 2] the “Inhibition of PDGF-BB binding to FNIII1, FNIII12-14 and IIICS” value [6] was “neither peptide 2, nor the scramble variant of peptide 1 (FN634-658s), demonstrated inhibition”.

In the case of QPSHISKY, the “TGF-β1 binding, in words” value (TGF-β1) is reported as “minimal binding activity”.

In the case of QPSHISKYILRWRPKNSVGRWKEAT [peptide 1], the “Inhibition of PDGF-BB binding to FNIII1, FNIII12-14 and IIICS” value [6] is reported as “marked inhibition”, the “Inhibition of TGF-β1 binding to any recombinant FN domain” value [7] is reported as “completely inhibited” and the “Inhibition of bFGF binding to any recombinant FN domain” value [8] is reported as “completely inhibited”. The “FN null cell survival and proliferation” value (FN-null cells [5]; [9]) was “supported FN null cell survival and proliferation”.

QPSVGQQMIFEEHGFRRTTPPTTAT [peptide 4] gave a Kd (TGF-β1; equilibrium binding) of 100 nM.

In the case of “anastellin: 76-aa peptide within FNIII1; anti-angiogenic, promotes FN polymerization [reference compound]”, the “PDGF-BB binding, in words” value (PDGF-BB [1]) is reported as “demonstrated PDGF-BB binding” and the “Binding of the GFs tested, in words” value [2] is reported as “all but VEGF bound”.

With “intact FN: intact human plasma fibronectin (SEQ ID NO:1)” the Kd (TGF-β1; equilibrium binding) was 53 nM, the “FGF-1 binding, in words” value (FGF-1) was “did not” and the “EGF binding, in words” value (EGF) was “did not”. For the same substance, the “TGF-α binding, in words” value (TGF-α) was “did not”, the “FN-null cell survival / proliferation” value (FN-null cells [4]) was “robust proliferation” and the “FN-null cell survival / proliferation, summary statement” value (FN-null cells [4]) was “survived in the absence of PDGF-BB and proliferated in its presence”. The Kd (PDGF-BB [1]) was 49 nM and the Kd (bFGF (FGF-2); equilibrium binding, intact FN, read-out: KD, FGF-2 (bFGF) binding) was 44 nM.
